The target in the assay is T1, recombinant integrin α4β7 (Homo sapiens, UniProt P13612+P26010, DEL724-798).
T1 construct: purchased R&D Systems 5397-A3-050
T1 sequence (P13612 34-970 limits assumed): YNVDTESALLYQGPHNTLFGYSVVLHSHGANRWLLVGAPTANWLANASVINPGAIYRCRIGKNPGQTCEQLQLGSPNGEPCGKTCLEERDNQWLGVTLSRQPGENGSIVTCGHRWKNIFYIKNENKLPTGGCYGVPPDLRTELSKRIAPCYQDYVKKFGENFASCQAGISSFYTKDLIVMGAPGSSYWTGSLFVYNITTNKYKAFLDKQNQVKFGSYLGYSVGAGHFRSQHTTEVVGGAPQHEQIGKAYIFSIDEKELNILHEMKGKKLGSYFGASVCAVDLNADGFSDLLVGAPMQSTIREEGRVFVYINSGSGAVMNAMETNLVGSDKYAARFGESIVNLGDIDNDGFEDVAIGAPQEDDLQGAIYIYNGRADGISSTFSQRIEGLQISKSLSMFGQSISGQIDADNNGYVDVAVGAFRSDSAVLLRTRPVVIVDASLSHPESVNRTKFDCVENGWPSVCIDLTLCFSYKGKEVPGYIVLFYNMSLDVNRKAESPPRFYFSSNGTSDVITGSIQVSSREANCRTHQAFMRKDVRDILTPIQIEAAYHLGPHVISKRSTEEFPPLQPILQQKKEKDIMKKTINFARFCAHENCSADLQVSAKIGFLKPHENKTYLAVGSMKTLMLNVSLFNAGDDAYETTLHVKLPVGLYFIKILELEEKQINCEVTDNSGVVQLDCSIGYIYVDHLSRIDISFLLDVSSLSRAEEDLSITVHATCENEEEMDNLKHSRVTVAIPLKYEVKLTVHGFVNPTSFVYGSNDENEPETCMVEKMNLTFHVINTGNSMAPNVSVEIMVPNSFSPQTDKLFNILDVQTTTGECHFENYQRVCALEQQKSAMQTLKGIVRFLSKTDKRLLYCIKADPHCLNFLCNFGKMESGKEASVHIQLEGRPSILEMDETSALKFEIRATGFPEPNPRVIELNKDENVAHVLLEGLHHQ
T1 sequence (P26010 20-723 limits assumed): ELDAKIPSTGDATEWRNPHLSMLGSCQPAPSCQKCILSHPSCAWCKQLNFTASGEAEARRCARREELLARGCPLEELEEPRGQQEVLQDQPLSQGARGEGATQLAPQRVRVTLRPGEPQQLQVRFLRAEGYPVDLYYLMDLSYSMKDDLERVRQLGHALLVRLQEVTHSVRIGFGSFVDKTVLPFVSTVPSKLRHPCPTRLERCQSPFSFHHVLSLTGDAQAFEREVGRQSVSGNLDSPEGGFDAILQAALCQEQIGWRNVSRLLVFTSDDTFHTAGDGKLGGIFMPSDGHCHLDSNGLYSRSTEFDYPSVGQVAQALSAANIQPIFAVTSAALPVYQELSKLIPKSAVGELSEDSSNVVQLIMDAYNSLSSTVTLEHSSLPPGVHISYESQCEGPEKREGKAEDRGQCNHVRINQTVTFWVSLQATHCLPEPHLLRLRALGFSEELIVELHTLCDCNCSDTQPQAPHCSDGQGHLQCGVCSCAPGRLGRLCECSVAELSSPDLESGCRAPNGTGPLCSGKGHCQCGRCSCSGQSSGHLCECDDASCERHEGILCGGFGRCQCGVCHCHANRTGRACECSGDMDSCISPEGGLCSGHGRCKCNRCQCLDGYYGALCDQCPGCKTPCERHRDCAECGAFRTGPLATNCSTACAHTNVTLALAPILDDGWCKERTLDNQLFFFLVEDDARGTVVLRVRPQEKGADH
Kind of assay: Integrin α4β7—MAdCAM-1 ELISA competition assay. The class given is binding. The conditions noted are these: for ELISA Assay Ratio b1/b7: ratio of a4b1 to a4b7 ELISA IC50; for IC50: read-out: ELISA a4b7 Assay IC50. On the technique in general: In an ELISA, binding on a coated surface is turned into a signal by an enzyme label.

The values that follow come from patent US11713338B2, “Cyclic peptides multimers targeting α-4-β-7 integrin” (priority 2016, dated 2023).

As for `CC(C)C[C@@H]1NC(=O)[C@H](Cc2ccc(O)cc2)NC(=O)[C@@H]2CCCN2C(C(=O)NC(C)(C)C)C(CSc2ccccc2)NC(=O)[C@H](C(C)C)NC(=O)[C@H](CC(=O)O)NC1=O` (some centres unmarked) [Compound 1], the “ELISA Assay Ratio b1/b7” value is reported as 0.988. On the same count and under the same terms, to `CC(C)C[C@@H]1NC(=O)[C@H](Cc2ccc(O)cc2)NC(=O)[C@@H]2CCCN2C(C(=O)NC(C)(C)C)C(CSc2ccccc2)NC(=O)[C@H]([C@@H](C)O)NC(=O)[C@H](CC(=O)O)NC1=O` (some centres unmarked) [Compound 3] belongs 2.474. `CC[C@H](C)[C@@H]1NC(=O)[C@H](CC(=O)O)NC(=O)[C@H](CC(C)C)NC(=O)[C@H](Cc2c[nH]c3ccccc23)NC(=O)[C@@H]2CCCN2[C@H](C(=O)NC(C)(C)C)[C@H](C)NC1=O` [Compound 8]: the concentration for half-maximal inhibition (IC50) is 103 nM. For `CC(C)C[C@@H]1NC(=O)[C@H](Cc2ccc(-c3ccccc3)cc2)NC(=O)[C@@H]2CCCN2[C@H](C(=O)NC(C)(C)C)[C@H](C)NC(=O)[C@H]([C@@H](C)OCc2ccccc2)NC(=O)[C@H](CC(=O)O)NC1=O` [Compound 18], the IC50 was determined as 120 nM. Same read-out and setting: the same measure for `CC[C@H](C)[C@@H]1NC(=O)[C@H](CC(=O)O)NC(=O)[C@H](CC(C)C)NC(=O)[C@H](Cc2ccc(O)cc2)NC(=O)[C@@H]2CCCN2[C@H](C(=O)NC(C)(C)C)[C@H](C)NC1=O` [Compound 53]: 182 nM. The same measure, in the same setting: to `CC(C)C[C@@H]1NC(=O)[C@H](Cc2ccncc2)NC(=O)[C@@H]2CCCN2[C@H](C(=O)NC(C)(C)C)[C@H](C)NC(=O)[C@H]([C@@H](C)O)NC(=O)[C@H](CC(=O)O)NC1=O` [Compound 54] belongs 190 nM. Turning to `CC(C)C[C@@H]1NC(=O)[C@@H](Cc2ccncc2)NC(=O)[C@@H]2CCCN2[C@H](C(=O)NC(C)(C)C)[C@H](C)NC(=O)[C@H]([C@@H](C)O)NC(=O)[C@H](CC(=O)O)NC1=O` [Compound 62], the “ELISA Assay Ratio b1/b7” value came to 4.3 and the half-maximal inhibitory concentration (IC50) amounted to 27 nM.

For `CC(C)C[C@@H]1NC(=O)[C@@H]2C[C@@H](O)CN2C(=O)[C@@H]2CCCN2[C@H](C(=O)NC(C)(C)C)[C@H](C)NC(=O)[C@H]([C@@H](C)O)NC(=O)[C@H](CC(=O)O)NC1=O` [Compound 63], the half-maximal inhibitory concentration (IC50) was 107 nM. `CCC[C@@H]1NC(=O)[C@@H]2CCCN2[C@H](C(=O)NC(C)(C)C)[C@H](C)NC(=O)[C@H]([C@@H](C)O)NC(=O)[C@H](CC(=O)O)NC(=O)[C@H](CC(C)C)NC1=O` [Compound 71]: the “ELISA Assay Ratio b1/b7” value was determined as 4.4 and the IC50 was 184 nM. On to `CC(C)C[C@@H]1NC(=O)[C@H](Cc2csc(-c3cccnc3)n2)NC(=O)[C@@H]2CCCN2[C@H](C(=O)NC(C)(C)C)[C@H](C)NC(=O)[C@H]([C@@H](C)O)NC(=O)[C@H](CC(=O)O)NC1=O` [Compound 96], for which the IC50 is 138 nM. `CC(C)C[C@@H]1NC(=O)[C@@H]2c3ccccc3CN2C(=O)[C@@H]2CCCN2[C@H](C(=O)NC(C)(C)C)[C@H](C)NC(=O)[C@H]([C@@H](C)O)NC(=O)[C@H](CC(=O)O)NC1=O` [Compound 99]: the IC50 is 57 nM.

Regarding `CC(C)C[C@@H]1NC(=O)[C@H]2CCCN2C(=O)[C@H](Cc2cc(F)c(F)c(F)c2)NC(=O)[C@@H]2CCCN2[C@H](C(=O)NC(C)(C)C)[C@H](C)NC(=O)[C@H]([C@@H](C)O)NC(=O)[C@H](CC(=O)O)NC1=O` [Compound 128], the “ELISA Assay Ratio b1/b7” value came out at 11.4 and the concentration for half-maximal inhibition (IC50) was found to be 26 nM.

With `CC(C)C[C@@H]1NC(=O)[C@H]2CCCCN2C(=O)[C@H](Cc2ccccc2-c2ccccc2)NC(=O)[C@@H]2CCCN2[C@H](C(=O)NC(C)(C)C)[C@H](C)NC(=O)[C@H]([C@@H](C)O)NC(=O)[C@H](CC(=O)O)NC1=O` [Compound 134], the “ELISA Assay Ratio b1/b7” value was found to be 7.6 and the IC50 turned out to be 23 nM. As to `COc1ccc(-c2ccccc2C[C@@H]2NC(=O)[C@@H]3CCCN3[C@H](C(=O)NC(C)(C)C)[C@H](C)NC(=O)[C@H]([C@@H](C)O)NC(=O)[C@H](CC(=O)O)NC(=O)[C@H](CC(C)C)NC(=O)[C@H]3CCCCN3C2=O)cc1` [Compound 137], the “ELISA Assay Ratio b1/b7” value came out at 7.8 and the IC50 came to 33 nM. The like results for `CC(C)C[C@@H]1NC(=O)[C@H]2C[C@H](O)CN2C(=O)[C@H](Cc2ccc(O)cc2)NC(=O)[C@@H]2CCCN2[C@H](C(=O)NC(C)(C)C)[C@H](C)NC(=O)[C@H]([C@@H](C)O)NC(=O)[C@H](CC(=O)O)NC1=O` [Compound 140] were, in that order, 9.6 and 53 nM. Consider `CCCC[C@H]1NC(=O)[C@H](Cc2ccc(O)cc2)NC(=O)[C@@H]2CCCN2[C@H](C(=O)NC(C)(C)C)[C@H](C)NC(=O)[C@H]([C@@H](C)O)NC(=O)[C@H](CC(=O)O)NC(=O)[C@H](CC(C)C)NC1=O` [Compound 155], for which the 50% inhibitory concentration (IC50) came to 54 nM. Regarding `CC(C)C[C@@H]1NC(=O)CN(C)C(=O)[C@H](Cc2cscn2)NC(=O)[C@@H]2CCCN2[C@H](C(=O)NC(C)(C)C)[C@H](C)NC(=O)[C@H]([C@@H](C)O)NC(=O)[C@H](CC(=O)O)NC1=O` [Compound 164], the concentration for half-maximal inhibition (IC50) worked out at 127 nM. Turning to `CC(C)C[C@@H]1NC(=O)CNC(=O)[C@H](Cc2ccc(CN)cc2)NC(=O)[C@@H]2CCCN2[C@H](C(=O)NC(C)(C)C)[C@H](C)NC(=O)[C@H]([C@@H](C)O)NC(=O)[C@H](CC(=O)O)NC1=O` [Compound 165], the “ELISA Assay Ratio b1/b7” value was 22.8 and the IC50 was found to be 128 nM. With `C=CCOc1ccc(C[C@@H]2NC(=O)[C@@H]3CCCN3[C@H](C(=O)NC(C)(C)C)[C@H](C)NC(=O)[C@H]([C@@H](C)O)NC(=O)[C@H](CC(=O)O)NC(=O)[C@H](CC(C)C)NC(=O)[C@@H](CO)NC2=O)cc1` [Compound 167], the “ELISA Assay Ratio b1/b7” value was found to be 13.6 and the 50% inhibitory concentration (IC50) turned out to be 147 nM.

With `CC(C)C[C@@H]1NC(=O)CN(C)C(=O)[C@H](Cc2csc(-c3cccnc3)n2)NC(=O)[C@@H]2CCCN2[C@H](C(=O)NC(C)(C)C)[C@H](C)NC(=O)[C@H]([C@@H](C)O)NC(=O)[C@H](CC(=O)O)NC1=O` [Compound 181], the “ELISA Assay Ratio b1/b7” value was found to be 12.6.

In the case of `CC(C)C[C@@H]1NC(=O)[C@H]2CCCCN2C(=O)[C@@H](Cc2cccc(-c3cccc4ncccc34)c2)NC(=O)[C@@H]2CCCN2[C@H](C(=O)NC(C)(C)C)[C@H](C)NC(=O)[C@H]([C@@H](C)O)NC(=O)[C@H](CC(=O)O)NC1=O` [Compound 192], the IC50 is 118 nM. With `CC(C)C[C@@H]1NC(=O)C[C@H](CCCCN)NC(=O)[C@H](Cc2ccc(O)cc2)NC(=O)[C@@H]2CCCN2[C@H](C(=O)NC(C)(C)C)[C@H](C)NC(=O)[C@H]([C@@H](C)OCc2ccccc2)NC(=O)[C@H](CC(=O)O)NC1=O` [Compound 200], the “ELISA Assay Ratio b1/b7” value is recorded as 2.6 and the IC50 stood at 134 nM.

With `CC(C)C[C@@H]1NC(=O)C[C@H](CCCCN)NC(=O)[C@H](Cc2ccc3ccccc3c2)NC(=O)[C@@H]2CCCN2[C@H](C(=O)NC(C)(C)C)[C@H](C)NC(=O)[C@H]([C@@H](C)O)NC(=O)[C@H](CC(=O)O)NC1=O` [Compound 203], the IC50 is 55 nM. The same measure, in the same setting: the same measure for `CC(C)C[C@@H]1NC(=O)C[C@H](CCCCN)NC(=O)[C@H](Cc2ccc(-c3ccccc3)cc2)NC(=O)[C@@H]2CCCN2[C@H](C(=O)NC(C)(C)C)[C@H](C)NC(=O)[C@H]([C@@H](C)O)NC(=O)[C@H](CC(=O)O)NC1=O` [Compound 204]: 63 nM. Consider `CC[C@H](C)[C@@H]1NC(=O)[C@H](CC(=O)O)NC(=O)[C@H](CC(C)C)NC(=O)C[C@H](CCCCN)NC(=O)[C@H](Cc2ccc(CN)cc2)NC(=O)[C@@H]2CCCN2[C@H](C(=O)NC(C)(C)C)[C@H](C)NC1=O` [Compound 215], for which the “ELISA Assay Ratio b1/b7” value was found to be 12.4 and the 50% inhibitory concentration (IC50) worked out at 33 nM.

Usually IC50 stands for the concentration that inhibits the measured activity by half.
